# Paper doi:10.1101/208439v1 (biorxiv, 2017)
# Read-outs that look alike come from different tables or passages of the source.
# Key:
# SMYD2 = SMYD2 (Homo sapiens, UniProt Q9NRG4); experiment: biochemical
# NSD2 = target: T1, NSD2 (Homo sapiens, UniProt O96028); experiment: HotSpot [3H]SAM filter-binding methyltransferase assay; assay type: biochemical; details: nucleosomes […], […] SAM, pH […] DTT, […] °C
# T1 construct: full length (residues 2-1365), N-terminal His tag, insect cell/baculovirus
# T1 sequence (O96028 2-1365): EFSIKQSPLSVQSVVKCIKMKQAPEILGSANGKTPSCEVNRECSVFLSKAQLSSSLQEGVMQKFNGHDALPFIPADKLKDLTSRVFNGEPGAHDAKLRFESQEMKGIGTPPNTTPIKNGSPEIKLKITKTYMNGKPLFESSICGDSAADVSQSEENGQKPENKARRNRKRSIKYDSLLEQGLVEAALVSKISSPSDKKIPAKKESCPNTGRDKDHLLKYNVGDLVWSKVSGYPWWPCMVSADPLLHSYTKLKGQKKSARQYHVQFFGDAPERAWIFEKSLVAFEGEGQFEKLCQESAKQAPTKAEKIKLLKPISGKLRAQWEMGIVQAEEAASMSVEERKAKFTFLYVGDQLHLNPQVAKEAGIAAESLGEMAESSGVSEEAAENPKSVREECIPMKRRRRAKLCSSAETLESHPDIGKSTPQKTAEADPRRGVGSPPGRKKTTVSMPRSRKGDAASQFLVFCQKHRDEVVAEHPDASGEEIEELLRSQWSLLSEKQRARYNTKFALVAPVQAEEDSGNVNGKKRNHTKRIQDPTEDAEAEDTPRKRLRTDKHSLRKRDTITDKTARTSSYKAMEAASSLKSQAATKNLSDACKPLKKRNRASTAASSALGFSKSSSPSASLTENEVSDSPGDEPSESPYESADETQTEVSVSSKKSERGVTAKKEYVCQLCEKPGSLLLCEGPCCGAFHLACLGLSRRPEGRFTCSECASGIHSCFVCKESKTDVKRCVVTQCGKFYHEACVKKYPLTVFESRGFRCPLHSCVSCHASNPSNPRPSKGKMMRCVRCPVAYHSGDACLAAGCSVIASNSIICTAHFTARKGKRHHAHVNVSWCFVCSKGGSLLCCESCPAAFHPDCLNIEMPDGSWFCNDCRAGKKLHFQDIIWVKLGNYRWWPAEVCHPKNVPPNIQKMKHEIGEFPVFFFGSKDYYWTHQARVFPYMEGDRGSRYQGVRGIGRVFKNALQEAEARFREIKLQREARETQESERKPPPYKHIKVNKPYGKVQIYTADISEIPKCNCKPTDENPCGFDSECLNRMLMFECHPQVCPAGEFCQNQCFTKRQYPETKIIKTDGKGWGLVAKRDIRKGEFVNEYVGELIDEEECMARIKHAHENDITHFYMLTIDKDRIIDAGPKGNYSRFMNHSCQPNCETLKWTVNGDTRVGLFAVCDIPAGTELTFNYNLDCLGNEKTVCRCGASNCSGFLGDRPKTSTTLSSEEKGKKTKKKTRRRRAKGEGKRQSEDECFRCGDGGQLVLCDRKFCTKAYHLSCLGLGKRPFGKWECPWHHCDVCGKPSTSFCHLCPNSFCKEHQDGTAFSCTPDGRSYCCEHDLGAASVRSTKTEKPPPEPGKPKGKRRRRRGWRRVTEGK
# EZH2 Complex = target: T2, EZH2 Complex (Homo sapiens, UniProt Q15910); experiment: as above; assay type: biochemical
# T2 construct: five-member complex, Flag-EED, other subunits His-tagged, insect cells; with Zinc finger protein AEBP2; Polycomb protein EED; Polycomb protein SUZ12
# NSD1 = target: T3, NSD1 (Homo sapiens, UniProt Q96L73); experiment: as above; assay type: biochemical; details: nucleosomes, […] SAM, pH […] MgCl2, […] DTT, […] °C, single experiment
# T3 construct: residues 1538-2696, N-terminal His tag, insect cell/baculovirus
# T3 sequence (Q96L73 1538-2696): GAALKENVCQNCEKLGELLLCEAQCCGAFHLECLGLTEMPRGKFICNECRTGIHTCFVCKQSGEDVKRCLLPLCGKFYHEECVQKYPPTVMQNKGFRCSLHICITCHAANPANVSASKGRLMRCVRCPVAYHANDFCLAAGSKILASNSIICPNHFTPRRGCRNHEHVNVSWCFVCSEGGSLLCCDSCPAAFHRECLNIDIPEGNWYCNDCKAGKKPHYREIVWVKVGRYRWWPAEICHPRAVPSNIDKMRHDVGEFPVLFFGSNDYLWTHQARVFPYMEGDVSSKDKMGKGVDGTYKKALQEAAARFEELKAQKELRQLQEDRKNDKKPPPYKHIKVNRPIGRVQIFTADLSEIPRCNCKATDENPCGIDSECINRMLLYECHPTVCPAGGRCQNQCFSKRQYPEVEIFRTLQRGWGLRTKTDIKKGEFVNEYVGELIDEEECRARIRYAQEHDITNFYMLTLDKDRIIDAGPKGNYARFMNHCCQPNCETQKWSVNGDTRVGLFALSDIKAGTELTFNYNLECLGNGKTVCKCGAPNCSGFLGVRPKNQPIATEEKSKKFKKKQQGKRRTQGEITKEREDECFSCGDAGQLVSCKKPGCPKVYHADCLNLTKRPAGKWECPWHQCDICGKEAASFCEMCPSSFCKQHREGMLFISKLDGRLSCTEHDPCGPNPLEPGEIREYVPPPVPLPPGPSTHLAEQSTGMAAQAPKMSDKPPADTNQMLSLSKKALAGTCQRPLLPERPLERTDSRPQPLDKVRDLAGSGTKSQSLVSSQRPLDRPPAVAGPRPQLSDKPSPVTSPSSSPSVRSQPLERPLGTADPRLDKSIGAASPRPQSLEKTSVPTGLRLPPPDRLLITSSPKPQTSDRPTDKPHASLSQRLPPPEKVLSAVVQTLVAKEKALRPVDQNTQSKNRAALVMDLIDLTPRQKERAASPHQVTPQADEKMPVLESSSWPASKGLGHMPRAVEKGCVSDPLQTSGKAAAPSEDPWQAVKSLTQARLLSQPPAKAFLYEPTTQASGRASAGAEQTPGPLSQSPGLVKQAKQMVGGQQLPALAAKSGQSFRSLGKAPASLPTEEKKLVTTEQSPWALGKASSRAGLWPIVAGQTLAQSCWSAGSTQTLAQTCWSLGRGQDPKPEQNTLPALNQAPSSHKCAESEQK
# Sequence of SMYD2 (Q9NRG4 whole entry): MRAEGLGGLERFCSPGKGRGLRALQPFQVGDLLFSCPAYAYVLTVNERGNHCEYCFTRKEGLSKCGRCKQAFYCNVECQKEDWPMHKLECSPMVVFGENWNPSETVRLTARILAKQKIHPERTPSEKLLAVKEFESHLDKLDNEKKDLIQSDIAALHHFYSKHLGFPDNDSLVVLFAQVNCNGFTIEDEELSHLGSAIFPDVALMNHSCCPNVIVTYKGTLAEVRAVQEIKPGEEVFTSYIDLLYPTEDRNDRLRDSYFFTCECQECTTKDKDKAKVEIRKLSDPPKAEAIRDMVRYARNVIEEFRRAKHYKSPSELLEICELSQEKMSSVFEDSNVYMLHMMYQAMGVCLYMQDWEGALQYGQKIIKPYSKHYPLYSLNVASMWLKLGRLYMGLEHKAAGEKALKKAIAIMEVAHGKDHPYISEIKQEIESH
# T2 sequence (Q15910 2-746): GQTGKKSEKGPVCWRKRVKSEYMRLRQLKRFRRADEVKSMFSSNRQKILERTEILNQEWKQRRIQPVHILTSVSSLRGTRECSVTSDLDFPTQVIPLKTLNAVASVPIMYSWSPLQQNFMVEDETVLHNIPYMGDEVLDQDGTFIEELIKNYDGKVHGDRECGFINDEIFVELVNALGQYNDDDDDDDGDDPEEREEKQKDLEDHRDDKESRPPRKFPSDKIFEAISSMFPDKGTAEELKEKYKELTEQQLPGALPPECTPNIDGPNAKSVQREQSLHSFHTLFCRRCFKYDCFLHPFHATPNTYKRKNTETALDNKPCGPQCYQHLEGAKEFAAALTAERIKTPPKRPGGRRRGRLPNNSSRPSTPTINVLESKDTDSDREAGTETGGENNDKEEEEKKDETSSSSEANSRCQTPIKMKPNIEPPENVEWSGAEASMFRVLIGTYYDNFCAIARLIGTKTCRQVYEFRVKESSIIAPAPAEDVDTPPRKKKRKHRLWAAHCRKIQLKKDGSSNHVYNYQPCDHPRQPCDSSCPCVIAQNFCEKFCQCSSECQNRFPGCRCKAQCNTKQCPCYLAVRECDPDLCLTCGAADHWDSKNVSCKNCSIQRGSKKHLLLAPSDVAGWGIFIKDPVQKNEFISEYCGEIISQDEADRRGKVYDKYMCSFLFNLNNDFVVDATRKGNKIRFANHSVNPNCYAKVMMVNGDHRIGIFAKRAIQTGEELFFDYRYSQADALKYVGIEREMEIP
# T2 sequence (O75530 2-441 partner): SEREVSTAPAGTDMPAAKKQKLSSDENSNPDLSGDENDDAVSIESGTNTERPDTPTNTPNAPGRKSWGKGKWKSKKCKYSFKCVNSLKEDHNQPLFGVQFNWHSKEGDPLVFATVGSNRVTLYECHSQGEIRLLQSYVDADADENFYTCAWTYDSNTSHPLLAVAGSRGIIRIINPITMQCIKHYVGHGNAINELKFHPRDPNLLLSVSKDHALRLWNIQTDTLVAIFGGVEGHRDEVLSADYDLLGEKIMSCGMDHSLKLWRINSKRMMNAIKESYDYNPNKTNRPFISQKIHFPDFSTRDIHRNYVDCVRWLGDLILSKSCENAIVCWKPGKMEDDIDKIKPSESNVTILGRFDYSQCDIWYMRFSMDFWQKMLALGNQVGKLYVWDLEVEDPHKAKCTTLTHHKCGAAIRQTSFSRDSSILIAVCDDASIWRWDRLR
# T2 sequence (Q15022 2-739 partner): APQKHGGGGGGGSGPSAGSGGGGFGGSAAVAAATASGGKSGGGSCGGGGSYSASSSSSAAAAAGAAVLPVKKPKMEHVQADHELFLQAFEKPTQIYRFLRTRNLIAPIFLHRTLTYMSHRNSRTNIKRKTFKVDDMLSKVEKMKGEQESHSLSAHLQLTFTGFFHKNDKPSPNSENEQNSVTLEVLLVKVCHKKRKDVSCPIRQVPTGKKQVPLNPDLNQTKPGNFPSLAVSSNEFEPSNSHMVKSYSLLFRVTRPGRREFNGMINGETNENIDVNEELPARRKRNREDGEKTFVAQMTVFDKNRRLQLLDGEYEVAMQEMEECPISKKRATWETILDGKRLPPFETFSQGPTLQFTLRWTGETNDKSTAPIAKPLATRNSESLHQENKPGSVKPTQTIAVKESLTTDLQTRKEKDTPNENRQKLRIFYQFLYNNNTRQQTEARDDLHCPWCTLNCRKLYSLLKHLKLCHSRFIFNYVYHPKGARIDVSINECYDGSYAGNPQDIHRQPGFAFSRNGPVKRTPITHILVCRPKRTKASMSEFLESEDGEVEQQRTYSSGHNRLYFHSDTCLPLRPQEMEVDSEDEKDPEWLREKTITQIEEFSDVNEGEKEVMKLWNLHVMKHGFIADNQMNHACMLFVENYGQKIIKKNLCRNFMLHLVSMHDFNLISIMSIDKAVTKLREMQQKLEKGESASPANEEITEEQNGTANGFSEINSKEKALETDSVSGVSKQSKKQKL
# T2 sequence (Q09028 2-425 partner): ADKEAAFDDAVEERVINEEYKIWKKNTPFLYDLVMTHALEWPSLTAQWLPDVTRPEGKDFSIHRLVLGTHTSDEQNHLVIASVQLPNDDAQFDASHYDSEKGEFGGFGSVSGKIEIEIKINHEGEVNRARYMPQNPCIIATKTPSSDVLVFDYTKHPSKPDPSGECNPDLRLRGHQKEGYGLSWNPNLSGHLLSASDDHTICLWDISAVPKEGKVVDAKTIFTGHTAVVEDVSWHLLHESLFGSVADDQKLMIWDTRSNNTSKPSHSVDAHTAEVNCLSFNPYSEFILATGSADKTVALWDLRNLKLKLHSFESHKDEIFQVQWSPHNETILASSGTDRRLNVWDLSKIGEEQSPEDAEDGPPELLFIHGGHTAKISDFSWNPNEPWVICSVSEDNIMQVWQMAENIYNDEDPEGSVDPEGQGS
# T2 sequence (Q6ZN18 2-517 partner): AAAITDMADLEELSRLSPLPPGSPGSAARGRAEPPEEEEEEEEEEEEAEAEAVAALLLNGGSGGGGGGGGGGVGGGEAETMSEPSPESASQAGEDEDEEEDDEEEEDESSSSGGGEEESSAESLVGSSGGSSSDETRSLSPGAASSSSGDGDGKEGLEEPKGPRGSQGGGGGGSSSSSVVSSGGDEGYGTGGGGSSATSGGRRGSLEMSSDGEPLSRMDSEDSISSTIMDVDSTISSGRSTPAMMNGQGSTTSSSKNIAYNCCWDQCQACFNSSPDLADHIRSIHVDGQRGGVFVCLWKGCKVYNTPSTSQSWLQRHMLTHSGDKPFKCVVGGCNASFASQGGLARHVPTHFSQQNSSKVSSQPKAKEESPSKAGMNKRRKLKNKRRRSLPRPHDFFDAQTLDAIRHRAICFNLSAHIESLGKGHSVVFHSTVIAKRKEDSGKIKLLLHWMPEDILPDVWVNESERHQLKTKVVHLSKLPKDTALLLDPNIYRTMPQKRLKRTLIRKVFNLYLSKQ
"IC50 (SMYD2; read-out: DA3003-1 IC50, inhibitor) [µM]",IC50 (NSD2; compound is redox-active) [µM],IC50 (EZH2 Complex) [µM],IC50 (NSD1) [µM],IC50 (SMYD2) [µM],IC50 (NSD2) [µM],"IC50 (EZH2 Complex; core histone, […] SAM, pH […] EDTA, […] DTT, […] °C, single experiment) [µM]",Compound
1.7,0.17,0.46,0.11,,,,O=C1C(Cl)=C(NCCN2CCOCC2)C(=O)c2ncccc21 [DA3003-1]
,,,12,21,8.5,40,COc1cccc(-n2nc(C(=O)O)cc2-c2ccc(C3CCCCC3)c(Cl)c2)c1 [TC LPA5 4]
,,23,2.4,44,1.7,,CC1(C)CCC(CN2CCN(c3ccc(C(=O)NS(=O)(=O)c4ccc(NCC5CCOCC5)c([N+](=O)[O-])c4)c(Oc4cnc5[nH]ccc5c4)c3)CC2)=C(c2ccc(Cl)cc2)C1 [ABT-199]
